Assay results published in patent US8772029B2, “Modulation of oocyte meiotic progression and oocyte activation” (Northwestern University, priority 2011, dated 2014).

Experiments:
oocytes [1] = assay: Spindle phenotype scoring after in vitro maturation (IVM) with TPEN, MI-MII transition; assay type: cell-based, mouse
Description: (§1) For IVM studies, immature female CD1 mice (17 to 21 day old) were injected with 5IU equine chorionic gonadotropin (eCG) (Calbiochem, La Jolla, CA) in 100 μL sterile phosphate-buffered saline (PBS), intraperitoneally. After 44 to 48 hours, mice were anesthetized using isoflurane and euthanized by cervical dislocation. Dissected ovaries were placed in Leibovitz L-15 medium containing 1% FBS (L-15/FBS) and 0.2mM 3-isobutyl-1-methylxanthine (IBMX), and large antral follicles were punctured using 28 gauge needles to release cumulus oocyte complexes (COCs). COCs were washed through several drops of culture medium consisting of Minimum Essential Medium (MEM)-alpha with GLUTAMAX supplemented with 10% FBS, 1.5IU/mL human chorionic gonadotropin (hCG), and 5ng/mL epidermal growth factor and placed in culture medium with or without 10 μM N,N,N′,N′-tetrakis(2-pyridylmethyl) ethylenediamine (TPEN). In some experiments Z-Leu-Leu-Leu-al (MG132) was added to culture medium at 20 μM. COCs were cultured in drops of pre-equilibrated medium covered with embryo quality mineral oil at 37° C. in 5% CO2 with a humid environment. Ovulated MII eggs were collected from 4 to 6 week old mice primed with 5IU PMSG followed 48 h later by 5IU hCG. Oviducts were dissected into L-15/FBS, and eggs were removed and treated with 0.03% (w/v) hyaluronidase to remove cumulus cells. Eggs were washed and cultured in potassium simplex optimized medium (KSOM) (Millipore, Billerica, MA) covered with embryo quality mineral oil at 37° C. in 5% CO2.
Oocytes were denuded of cumulus cells and fixed in a microtubule stabilizing buffer (Ibanez et al., 2005) containing 2% formaldehyde and 1% Triton X-100 for 30 min at 37° C. Oocytes were washed and blocked in PBS containing 0.1M glycine, 3mg/mL BSA, 0.01% Tween 20, and 0.01% sodium azide for at least 1 h and were stored in blocking solution at 4° C. for up to 2 weeks. Oocytes were incubated with anti-tubulin antibody (1:100) for 1 h at 37C. followed by three washes in blocking solution. They were then incubated for 1 h in AlexaFluor-488 conjugated anti-mouse secondary antibody (5μg/mL) and rhodamine-phalloidin (2U/mL), washed three additional times, and mounted in VECTASHIELD with DAPI. Microscopy was performed using a Leica SP5 inverted laser-scanning confocal microscope with a 63x oil immersion objective (Leica Microsystems, Heidelberg, Germany). Images were processed using LAS AF software (Leica Microsystems). […]
Oocytes treated with TPEN during the MI-MII transition fail to enter MII. Following IVM under the conditions listed in control (C) or TPEN-containing (T) medium, oocytes were stained and imaged, and their spindle phenotypes were scored.

[2] = test system: zinc-insufficient oocytes; assay: Spindle phenotype scoring after IVM in TPEN with proteasome inhibitor MG132 added after 10 h; assay type: cell-based, mouse; details: TPEN 16 h without MG132; n=13
Description: as §1
Oocytes were denuded of cumulus cells and fixed in a microtubule stabilizing buffer (Ibanez et al., 2005) containing 2% formaldehyde and 1% Triton X-100 for 30 min at 37° C. Oocytes were washed and blocked in PBS containing 0.1M glycine, 3mg/mL BSA, 0.01% Tween 20, and 0.01% sodium azide for at least 1 h and were stored in blocking solution at 4° C. for up to 2 weeks. Oocytes were incubated with anti-tubulin antibody (1:100) for 1 h at 37C. followed by three washes in blocking solution. They were then incubated for 1 h in AlexaFluor-488 conjugated anti-mouse secondary antibody (5μg/mL) and rhodamine-phalloidin (2U/mL), washed three additional times, and mounted in VECTASHIELD with DAPI. Microscopy was performed using a Leica SP5 inverted laser-scanning confocal microscope with a 63x oil immersion objective (Leica Microsystems, Heidelberg, Germany). Images were processed using LAS AF software (Leica Microsystems).
It has been previously shown that zinc-insufficient oocytes fail to increase MPF activity following the first meiotic division and have low CCNB1 protein levels (Bernhardt et al., 2010). In order to determine whether this decrease in CCNB1 is the major cause of the observed meiotic arrest phenotype, it was tested whether increasing CCNB1 would be sufficient to rescue MII entry in zinc-insufficient oocytes by inhibiting the proteasome at the end of the MI-MII transition, thereby halting CCNB1 degradation. Experimental oocytes were cultured for 10 hours in TPEN-containing medium and were then transferred into medium containing TPEN as well as the proteasome inhibitor Z-Leu-Leu-Leu-al (MG132) at 20 μM concentration. MG132 was added after first polar body extrusion, because earlier addition would result in MI arrest due to failure to degrade APC/C targets that prevent cell division. Oocytes were cultured for an additional 6 h in the presence of MG132 to allow time for CCNB1 reaccumulation, for a total 16 h IVM culture period. Proteasome inhibition led to a partial rescue of the zinc insufficiency phenotype. 69% of treated oocytes formed spindle-like structures, and none were in telophase I arrest, despite being cultured in the presence of TPEN for the entire culture period (FIG. 2, A; Table 2).
A majority of zinc-insufficient oocytes treated with MG132 following the first meiotic division transition progress beyond telophase-I arrest and form MII spindle-like structures. […]

MII eggs = assay: Activation of in vivo ovulated MII eggs (SrCl2, TPEN, ZnPT pre-treatment)
Description: Ovulated MII eggs were collected as described above. Eggs were transferred to KSOM medium with or without 10 μM ZnPT (1:1000 dilution of a 10 mM stock in DMSO) for exactly 5 minutes. Eggs were then washed in KSOM and allowed to recover for 10-15 minutes prior to activation. For SrCl2 activation, eggs were transferred to drops of calcium-free KSOM containing 10 mM SrCl2 for 2 hours, followed by 4 additional hours of culture in calcium-containing KSOM without SrCl2. TPEN activation was performed as previously described (Kim et al., 2011); eggs were cultured for 6 hours in KSOM containing 10 μM TPEN. Unactivated controls were cultured in KSOM for the same 6 hour time period to assess levels of spontaneous parthenogenesis.
MII eggs were treated with the ionophore zinc pyrithione (ZnPT) for 5 minutes to increase intracellular zinc. Following a 10-15 minute recovery period, eggs were then treated with activating agents SrCl2 or TPEN.

oocytes [3] = details: literature (Kim et al 2010, Bernhardt et al 2011); cited from earlier work
[4] = COCs in control medium 7.5 h, then 10 μM TPEN 6.5 h, n=42
[5] = COCs in control medium 7.5 h, then 10 μM TPEN 6.5 h, n=42, listed as T

In the case of `c1ccc(CN(CCN(Cc2ccccn2)Cc2ccccn2)Cc2ccccn2)nc1` [TPEN, N,N,N′,N′-tetrakis(2-pyridylmethyl)ethylenediamine], the “TPEN-like (telophase-I arrest-like) spindle phenotype” value (oocytes [1]; [4]) is reported as 31%, the “normal MII spindle” value (oocytes [1]; [4]) is reported as “failed to form MII spindles and none” and the “other (>2 chr. masses) spindle phenotype” value (oocytes [1]; [4]) is reported as 19%. For the same compound, the “partial TPEN-like (chromatin mass) spindle phenotype” value (from here on “partial TPEN-like”) (oocytes [1]; [4]) was 54%, the “TPEN-like (telophase-I arrest-like) spindle phenotype” value (oocytes [1]; [5]) was 31% and the “normal MII spindle” value (oocytes [1]; [5]) was 0%. For the same compound, the “partial TPEN-like” value (oocytes [1]; [5]) was 54%, the “TPEN-like (telophase-I arrest-like) spindle phenotype” value (oocytes [1]; TPEN 14 h IVM, n=34) was 91% and the “normal MII spindle” value (oocytes [1]; TPEN 14 h IVM, n=34) was 0%. For the same compound, the “other (>2 chr. masses) spindle phenotype” value (oocytes [1]; TPEN 14 h IVM, n=34) was 6%, the “partial TPEN-like” value (oocytes [1]; TPEN 14 h IVM, n=34) was 3% and the “MII (aligned metaphase plate)” value [2] was 0%. For the same compound, the other spindle phenotype [2] was 23%, the “persisting midbody or chromatin mass” value [2] was 0% and the “spindle with chr. scattered along length” value [2] was 0%. For the same compound, the “spindle with ≦3 chr. out of place” value [2] was 0%, the “egg activation by TPEN after ZnPT pre-treatment” value (MII eggs; MII eggs, 10 μM ZnPT 5 minutes, then 10 μM TPEN 6 h) was “caused activation” and the “egg activation (second polar body and PN or PN-like structures)” value (MII eggs; control MII eggs, by 6 hours post activation, 10 mM SrCl2 2 h or 10 μM TPEN 6 h) was “activated normally”. The “meiotic arrest on TPEN treatment during the MI-MII transition” value (oocytes [3]) was “causes meiotic arrest at telophase-I”.
